From publication PMC6359675, “Functionalization of the Chalcone Scaffold for the Discovery of Novel Lead Compounds Targeting Fungal Infections” (Molecules, 2019) come the findings set out here.

“And” between values parts separate entries of the source, which are not always exact repeats. Equal entries are not always repeated.

The subject of the first series is C. albicans ATCC 10231. Put plainly: In vitro susceptibility testing, microdilution broth (EUCAST), C. albicans control strain. It counts as cell-based, Candida albicans. As to conditions: Candida albicans, ATCC10231, C. albicans ATCC 10231; mean and 95% confidence interval; read-out: IC50. As to the method: (§1) The in vitro antifungal activity of the chalcones was evaluated by a microdilution broth method in accordance with the guidelines provided by the EUCAST Edef 7.3 [22]. Briefly, all strains were cultured on Sabauraud dextrose, then inocula, prepared at 0.5 McFarland, were diluted 1:20 in RPMI-1640 medium (Gibco®, ThermoFisher Scientific Inc., Waltham, MA, USA), containing glucose 2%, 0.3% levo-glutamine buffered to pH 7.0 with 0.165 M 3-(N-morpholino)propanesulfonic acid (MOPS) to yield 1-5 × 10^5 cells/mL. A total of 100 µL of the yeast suspension was inoculated in a 96-well microplate and incubated with 100 µL of serially 2-fold dilution of the compound in the range 200–6.25 µM. The following controls were included: yeast suspensions incubated in RPMI-1640 culture medium (positive growth control), or supplemented with dilutions of DMSO, or fluconazole (Sigma-Aldrich, St. Louis, MO, USA) as a commercial drug. To check the background turbidity of reagents and the sterility of the procedure, dilutions of each compound were incubated in RPMI-1640 culture medium, without yeast inoculum. The inoculated plate was incubated at 37 °C for 24 h, and subsequently the optical density at 630 nm was measured by the Multiskan Ascent microplate reader (Thermo Fisher Scientific Inc.). The effectiveness of the compounds was expressed as percent inhibition relative to the positive growth control when the inhibition […] the 50% at 100 µM. The IC50 value was determined by interpolation of the dose–response curves generated by plotting the percentages of growth inhibition, relative to the drug-free control (set to 100% of growth), as a function of the tested concentrations (on a logarithm scale). Statistical analysis was carried out by the nonlinear regression method using GraphPad Prism version 5.0 for Windows (GraphPad Software, San Diego, CA, USA). All assays were performed in triplicate and at least two independent experiments were carried out.
Take `CC(C)=CCOc1ccc(C(=O)/C=C/c2cccnc2)c(O)c1` [Compound 20]: the IC50 was found to be 16.8 µM.

As to `OC(Cn1cncn1)(Cn1cncn1)c1ccc(F)cc1F` [FLC, fluconazole, reference compound], the IC50 was 0.25 µM.

The same series, now with this note: Candida albicans, ATCC10231, C. albicans ATCC 10231; mean and 95% confidence interval; read-out: IC50 [μg/mL].
Consider `CC(C)=CCOc1ccc(C(=O)/C=C/c2cccnc2)c(O)c1` [Compound 20], for which the IC50 was found to be 4.9 µg/mL.

Take `OC(Cn1cncn1)(Cn1cncn1)c1ccc(F)cc1F` [FLC, fluconazole, reference compound]: the IC50 worked out at 0.07 µg/mL.

Still in this series, the particulars now being: Candida albicans, ATCC10231; at 100 μM; C. albicans ATCC 10231; 24 h.
As to `CC(C)=CCOc1ccc(C(=O)/C=C/c2cccnc2)c(O)c1` [Compound 20], testing at 100 µM gave an inhibition of 81.5 ± 4.7%.

Compound `C#CCOc1ccc(C(=O)/C=C/c2ccc(Cl)cc2Cl)c(OCC#C)c1` [Compound 23, (E)-1-(2,4-bis(prop-2-yn-1-yloxy)phenyl)-3-(2,4-dichlorophenyl)prop-2-en-1-one] had an inhibition at 100 µM of 4.6 ± 13.8%.

The series is the same for the next values; noted with them: screen at 100 μM, C. albicans ATCC 10231.
Take `C#CCOc1ccc(C(=O)/C=C/c2ccc(Cl)cc2Cl)c(OCC#C)c1` [Compound 23, (E)-1-(2,4-bis(prop-2-yn-1-yloxy)phenyl)-3-(2,4-dichlorophenyl)prop-2-en-1-one]: the “antifungal activity against C. albicans growth, in words” value was “inactive”.

System in a further series: not listed separately
Put plainly: Cytotoxicity test on Vero cells (WST8/CCK-8 cell viability). The format is cell-based, African green monkey. As to conditions: African green monkey, Vero cells (ATCC CCL-81), Vero cells, mean and 95% confidence interval, read-out: CC50. On the procedure: (§2) African green monkey kidney cells (Vero ATCC CCL-81) were cultured in Eagle’s Minimal Essential Medium (MEM) (Sigma-Aldrich), supplemented with 10% fetal bovine serum (FBS) (Carlo Erba Reagents, Milan, Italy), 100 U/mL penicillin, and 100 µg/mL streptomycin at 37 °C with 5% CO2. For experiments, cells were seeded into 96-well plates at 10^4 cells/well, and incubated at 37 °C for 24 h. Following washes with PBS, cell monolayer was incubated with 100 µL of serially 2-fold dilution of the compound in the range 200–6.25 µM. Both untreated cells and cells incubated with medium containing solvent dilutions were included in each experiment as controls.
(§3) The cell viability was assessed by a WST8-based assay according to the manufacturer’s instructions (CCK-8, Cell Counting Kit-8, Dojindo Molecular Technologies, Rockville, MD, USA). After 72 h of incubation, culture medium was removed from each well, the monolayer was washed with PBS, and 100 µL of fresh medium containing 10 µL of CCK-8 solution were added. Following a 2 h at 37 °C, the absorbance was measured at 450/630 nm; data were calculated as the percentage of the cell viability relative to the untreated controls.
Background: Formazan colour is commonly taken as a measure of viable cells.
`CC(C)=CCOc1ccc(C(=O)/C=C/c2cccnc2)c(O)c1` [Compound 20]: the CC50 at 72 h amounted to 54.3 µM.

The series is the same for the next values; noted with them: African green monkey, Vero cells (ATCC CCL-81), Vero cells, mean and 95% confidence interval, read-out: CC50 [μg/mL].
Take `CC(C)=CCOc1ccc(C(=O)/C=C/c2cccnc2)c(O)c1` [Compound 20]: the CC50 at 72 h was found to be 15.9 µg/mL.

Another series has as its system Vero cells (ATCC CCL-81). The description is as above. As to conditions: 72 h, up to the highest concentration of 200 μM. It counts as cell-based, African green monkey. On the procedure:
as §2, §3
In the case of `CC(C)=CCOc1ccc(C(=O)/C=C/c2cccnc2)c(O)c1` [Compound 20], the “toxicity on Vero cells, in words” value was “moderately toxic”.

The next series concerns C. albicans. Description: In vitro susceptibility testing, C. albicans clinical isolate. The format is cell-based. As to conditions: Candida albicans; clinical isolate; mean and 95% confidence interval; read-out: IC50 C. albicans.
Text: (§4) The yeasts included in the present study were Candida albicans ATCC 10231 (American Type Culture Collection) and a collection of yeasts recovered from a variety of clinical specimens, i.e., blood, urine, genital swabs, bronchoalveolar lavage, nail specimens, collected at the Microbiology Unit, St. Orsola Malpighi University Hospital, Bologna, Italy. The clinical strain isolates were identified by standard procedures, including colony morphology on chromogenic agar (CHROMagar Candida medium, Becton Dickinson, Heidelberg, Germany) and confirmed by MALDI Biotyper System using matrix-assisted laser desorption ionization–time of flight mass spectrometry (MALDI-TOF MS, Bruker Daltonik, GmbH, Germany).
as §1
Turning to `OC(Cn1cncn1)(Cn1cncn1)c1ccc(F)cc1F` [FLC, fluconazole, reference compound], the IC50 was 420 nM and 0.13 µg/mL.

The next series has as its system C. parapsilosis. Description: In vitro susceptibility testing, C. parapsilosis clinical isolate. The format is cell-based. As to conditions: Lodderomyces parapsilosis; clinical isolate; read-out: IC50 C. parapsilosis.
Text: as §4, §1
As to `OC(Cn1cncn1)(Cn1cncn1)c1ccc(F)cc1F` [FLC, fluconazole, reference compound], the IC50 is 37 nM and 0.01 µg/mL.

In a further series the test system is C. lusitaniae. Description: In vitro susceptibility testing, C. lusitaniae clinical isolate. It counts as cell-based. As to conditions: Clavispora lusitaniae; clinical isolate; read-out: IC50 C. lusitaniae.
Text: as §4, §1
For the compound `OC(Cn1cncn1)(Cn1cncn1)c1ccc(F)cc1F` [FLC, fluconazole, reference compound], the IC50 is 50 nM and 0.015 µg/mL.

Another series deals with C. tropicalis. Put plainly: In vitro susceptibility testing, C. tropicalis clinical isolate. The format is cell-based. As to conditions: Candida tropicalis; clinical isolate; read-out: IC50 C. tropicalis.
Text: as §4, §1
`OC(Cn1cncn1)(Cn1cncn1)c1ccc(F)cc1F` [FLC, fluconazole, reference compound]: the IC50 came out at 0.4 µM.

In a further series the test system is C. krusei. Description: In vitro susceptibility testing, C. krusei clinical isolate. It counts as cell-based. As to conditions: Pichia kudriavzevii; clinical isolate; read-out: IC50 C. krusei.
Text: as §4, §1
As for `OC(Cn1cncn1)(Cn1cncn1)c1ccc(F)cc1F` [FLC, fluconazole, reference compound], the IC50 is 64.6 µM and 19.8 µg/mL.

The test system of the next series is C. glabrata. Put plainly: In vitro susceptibility testing, C. glabrata clinical isolate. It counts as cell-based. As to conditions: Nakaseomyces glabratus; clinical isolate; read-out: IC50 C. glabrata.
Text: as §4, §1
For the compound `OC(Cn1cncn1)(Cn1cncn1)c1ccc(F)cc1F` [FLC, fluconazole, reference compound], the IC50 is 14.4 µM and 4.4 µg/mL.

The next series relates to C. utilis. Description: In vitro susceptibility testing, C. utilis clinical isolate. As to conditions: Williopsis jadinii; clinical isolate; read-out: IC50 C. utilis. The format is cell-based.
Text: as §4, §1
`OC(Cn1cncn1)(Cn1cncn1)c1ccc(F)cc1F` [FLC, fluconazole, reference compound]: the IC50 is 1.56 µM and 0.5 µg/mL.

Another series concerns C. neoformans. Put plainly: In vitro susceptibility testing, C. neoformans clinical isolate. It counts as cell-based. As to conditions: Cryptococcus neoformans; clinical isolate; read-out: IC50 C. neoformans.
Text: as §4, §1
For `OC(Cn1cncn1)(Cn1cncn1)c1ccc(F)cc1F` [FLC, fluconazole, reference compound], the IC50 was 256 µM and 78.4 µg/mL.

The next series relates to S. clavata. Description: In vitro susceptibility testing, S. clavata clinical isolate. It counts as cell-based. As to conditions: clinical isolate; read-out: IC50 S. clavata.
Text: as §4, §1
`OC(Cn1cncn1)(Cn1cncn1)c1ccc(F)cc1F` [FLC, fluconazole, reference compound]: the IC50 was 40 nM and 0.012 µg/mL.

The test system of a further series is R. mucilaginosa. Put plainly: In vitro susceptibility testing, R. mucilaginosa clinical isolate. As to conditions: clinical isolate; read-out: IC50 R. mucilaginosa. It counts as cell-based.
Text: as §4, §1
As for `OC(Cn1cncn1)(Cn1cncn1)c1ccc(F)cc1F` [FLC, fluconazole, reference compound], the IC50 is 1.6 mM and 491 µg/mL.

System in the next series: not given
Test: not given
Conditions: not given
Compound `C#CCOc1ccc(C(=O)/C=C/c2ccc(Cl)cc2Cl)c(OCC#C)c1` [Compound 23, (E)-1-(2,4-bis(prop-2-yn-1-yloxy)phenyl)-3-(2,4-dichlorophenyl)prop-2-en-1-one] gave a melting point of 166 to 168 °C.

As a reminder, the inhibition is the relative decrease from the control value, in per cent. Low values mean little suppression, high ones strong suppression. Usually melting point stands for the temperature of the solid-liquid transition.
